The text below walks through data of ChEMBL document CHEMBL3808363, “2-(Thienothiazolylimino)-1,3-thiazolidin-4-ones inhibit cell division cycle 25 A phosphatase” (Bioorg Med Chem, 2016).

Experiment [1] deals with T1, M-phase inducer phosphatase 1 (Homo sapiens) (UniProt P30304).
T1 sequence (whole entry): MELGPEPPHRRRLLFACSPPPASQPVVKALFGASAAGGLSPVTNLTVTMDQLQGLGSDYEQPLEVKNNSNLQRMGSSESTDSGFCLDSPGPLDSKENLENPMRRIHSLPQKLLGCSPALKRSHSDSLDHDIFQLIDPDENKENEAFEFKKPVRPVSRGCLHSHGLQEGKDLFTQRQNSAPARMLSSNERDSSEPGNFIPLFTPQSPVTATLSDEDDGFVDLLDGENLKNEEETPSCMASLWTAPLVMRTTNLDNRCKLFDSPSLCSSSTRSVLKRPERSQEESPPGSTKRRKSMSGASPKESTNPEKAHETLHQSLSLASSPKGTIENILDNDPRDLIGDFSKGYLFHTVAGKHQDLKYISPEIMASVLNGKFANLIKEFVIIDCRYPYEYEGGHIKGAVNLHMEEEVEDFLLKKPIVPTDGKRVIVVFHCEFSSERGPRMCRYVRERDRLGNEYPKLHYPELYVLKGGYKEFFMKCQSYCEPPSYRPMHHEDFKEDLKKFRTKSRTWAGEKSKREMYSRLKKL
The experiment is described as follows: Inhibition of human recombinant full length GST-tagged CDC25A transfected in Escherichia coli BL21-DE3 using 3-O-methylfluorescein phosphate as substrate at 10 uM incubated for 20 mins followed by substrate addition measured every 10 mins for 2 hrs by fluorimetric assay in presence of 0.05% triton X 100.

Experiment [2] addresses T2, M-phase inducer phosphatase 3 (Homo sapiens) (UniProt P30307).
T2 sequence (whole entry): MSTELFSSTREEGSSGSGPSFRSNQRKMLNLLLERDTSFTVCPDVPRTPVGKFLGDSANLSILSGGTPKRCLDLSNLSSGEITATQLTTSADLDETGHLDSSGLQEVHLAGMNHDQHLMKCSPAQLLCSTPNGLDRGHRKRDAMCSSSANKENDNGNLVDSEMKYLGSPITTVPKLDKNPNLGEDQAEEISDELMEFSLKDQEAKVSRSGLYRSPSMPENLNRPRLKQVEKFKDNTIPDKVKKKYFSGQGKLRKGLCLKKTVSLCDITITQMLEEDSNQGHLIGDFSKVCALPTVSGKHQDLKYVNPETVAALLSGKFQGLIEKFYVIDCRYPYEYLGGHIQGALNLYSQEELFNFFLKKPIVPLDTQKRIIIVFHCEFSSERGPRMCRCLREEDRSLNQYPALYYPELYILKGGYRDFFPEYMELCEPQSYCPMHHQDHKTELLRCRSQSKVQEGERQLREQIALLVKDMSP
In words: Inhibition of human recombinant full length GST-tagged CDC25C transfected in Escherichia coli BL21-DE3 using 3-O-methylfluorescein phosphate as substrate at 10 uM incubated for 20 mins followed by substrate addition measured every 10 mins for 2 hrs by fluorimetric assay.

The term inhibition denotes the relative decrease from the control value, in per cent. As for `COc1ccc(/C=C2/S/C(=N\c3nc4cc(-c5ccc(Cl)cc5)sc4s3)NC2=O)cc1`, the figures for the inhibition in experiment [1] and in experiment [2] were 54.4% and 24%, respectively.
